According to patent publication US9723860B2, “Method for improving economic performance in poultry husbandry” (PURAC BIOCHEM BV, priority 2012, dated 2017):

Test system: Broiler chickens
Assay: Example 2: 20 day performance of broilers on decreasing levels of lactylate mixture or diclazuril
Assay type: in vivo, chicken (broilers)
Conditions: day 20
Text: Broilers were reared on a diet containing either decreasing levels of a mixture of lauric and myristic lactylates (lactylate test diet), or an effective dose of diclazuril (coccidiostat diet), or a filler consisting of corn starch and kaolin. The birds fed the test diet including the lactylates received the lactylates from the first feed onwards. For the first 10 days, the dosing level of lactylates was 0.4%. From day 11 onwards, the dosing level was reduced to 0.3%. At day 20, the economic performance of the broilers was evaluated using the body weight, body weight gain, feed consumption and feed-to-gain ratio.

[1] = lactylates 0.4% first 10 days, 0.3% from day 11, diclazuril effective dose, in diet

Question: Which “economic performance versus control group” value does the source give for `N#CC(c1ccc(Cl)cc1)c1c(Cl)cc(-n2ncc(=O)[nH]c2=O)cc1Cl` (centres unmarked) [Coccidiostat, diclazuril] here?
Answer: did not improve performance

Question: What about the Body weight [1] of the same molecule?
Answer: 850 g

Question: And the Body weight gain [1]?
Answer: 804 g

Question: And the “Feed Consumption” value [1]?
Answer: 1115 g

Question: What about the Feed-to-Gain ratio [1] of the same molecule?
Answer: 1.388 g/g
